These results are taken from patent US20250236596A1, “HYDROXYLAMINE-BASED EGFR INHIBITORS FOR TREATMENT OF CANCER WITH BRAIN METASTASES” (University of Georgia Research Foundation, Inc., priority 2022, published 2025).

The nature of series [1]: Oral CNS pharmacokinetics in SD rats. As to conditions: male, rat, brain and plasma, single oral dose 20 mg/kg, read-out: Kp,uu (unbound brain-to-unbound plasma partitioning coefficient) (AUCinf). It counts as in vivo. As for the experimental part: Animal experiments were performed at Pharmaron Inc. and animal use was approved by Pharmaron's Institutional Animal Care and Use Committee (IACUC) in Pharmaron (Pharmaron IACUC, Protocol #PK-M-07182022, #PK-R-06012022 and #ON-CELL-XEN-06012022) following the guidance of AAALAC. Six- to eight-week-old male SD rats (approximately 200-300 g) obtained from Si Bei Fu Laboratory Animal Technology Co., six- to eight-week-old male CD1 mice (approximately 20-30 g) obtained from Si Bei Fu Laboratory Animal Technology Co., and six- to eight-week-old female BALB/c nude mice (approximately 20-30 g) obtained from Si Bei Fu Laboratory Animal Technology Co., were used in the pharmacokinetic studies. Six- to eight-week-old female BALB/c nude mice (approximately 18-22 g) obtained from Beijing Anikeeper Biotech Co., Ltd were used in the intracranial PDX study. […]
Oral CNS pharmacokinetic assessment of 15 was done by oral gavage (formulation: 1% methylcellulose) followed by blood and brain sampling at 7 time points (0.25, 0.5, 1, 2, 4, 8, 24 h post dose) with n=3 animals per time point (n=21 total). […] Concentrations of 15 in the plasma and brain samples were determined using LC-MS/MS and WinNonlin 8.3 (Phoenix™) was used for pharmacokinetic calculations. […]

The test system of series [2] is NCI-H1975 (EGFR L858R/T790M). Description: CellTiter-Glo viability assay, NCI-H1975. It counts as cell-based, human. As to conditions: 72 h, result in words. As for the experimental part:
The A431, HCC827, SK-BR-3, ZR-75-30, AU565 and Caco-2 cell lines were obtained from ATCC. The NCI-H1975 cell line was obtained from SIBS. The NCI-H3255 cell line was obtained from CoBioer. Engineered Ba/F3 cell lines were obtained from Crown Bioscience. MCKII-MDR1 cells were obtained from the Netherlands Cancer Institute. HEK293 cells were obtained from Invitrogen. A431 cells were cultured in DMEM (Life Technologies) with 10% FBS. HCC827, NCI-H1975 and AU565 cells were cultured in RPMI1640 (Invitrogen) with 10% FBS. NCI-H3255 cells were cultured in BEGM (Lonza) with 10% FBS. Ba/F3 EGFR-del E746_A750/C797S and Ba/F3 EGFR-L858R/C797S cells were cultured in RPMI (Invitrogen) with 10% FBS. SK-BR-3 cells were cultured in McCoy's 5a (Invitrogen) with 10% FBS. ZR-75-30 cells were cultured in RPMI1640 (Invitrogen) with 20% FBS. BT474 cells were cultured in DMEM (Gibco) with 10% FBS and 10 μg/mL Insulin. Caco-2 and MCKII-MDR1 culture information is given in the permeability studies section. […]
Viability assays using A431, HCC827, NCI-H1975, NCI-H3255, Ba/F3 EGFR-del E746_A750/C797S, Ba/F3 EGFR-L858R/C797S, AU565, SK-BR-3 and ZR-75-30 cells were performed at Crown BioScience. […] Dose-response curves were generated and used to calculate the IC50 values which were calculated on GraphPad Prism from the non-linear regression equation fitted with a sigmoidal dose response and are presented as the mean±SEM.
Background: In ATP-based viability assays light output follows the ATP content of the culture.

Series [3] can be described thus: Metabolic stability in liver microsomes. Format: in vitro ADME. The conditions noted are these: human and rat / multiple species; result in words. As for the experimental part: Assessment of the compounds metabolic stability in incubations containing liver microsomes and hepatocytes of human and rat using the compound depletion approach was performed by Pharmaron Inc. Compound 15 underwent additional stability evaluation in monkey and dog hepatocytes. Microsome stability was assessed in duplicate (n=2) in the presence and absence of NADPH with liver microsomes (0.5 mg/mL) from human (BD Gentest) and SD rat (BD Gentest). Compounds were incubated in liver microsomes at 1 μM and samples (30 μL) were taken at 0.5, 15, 30, 45 and 60 min time points for analysis by LC-MS/MS. Hepatocyte stability was assessed in duplicate (n=2) at a working cell density of 0.5×10^6 cells/mL with hepatocytes from human (BioIVT), SD rat (BioIVT), cynomolgous monkey (RILD) or beagle dog (BioIVT). Compounds were incubated in hepatocytes at 1 μM and samples (25 μL) were taken at 0.5, 15, 30, 60, 90 and 120 min time points for analysis by LC-MS/MS. The in vitro half-life and intrinsic clearances were determined as previously described.^19
In vitro half-life (in vitro t1/2) was determined from the slope value in: in vitro t1/2=−(0.693/k).
Where, k, was determined by linear regression of the natural logarithm of the remaining percentage of the parent drug vs incubation time curve.
On the technique in general: Liver microsomes are vesicles of endoplasmic reticulum, rich in cytochrome P450 enzymes.

The test system of series [4] is 468-member human kinase panel. Description: KINOMEScan kinase selectivity panel, S score. Format: binding. The conditions noted are these: 1 μM; 6/403 nonmutant kinases.
Description: Percent control was mapped onto the kinome tree using TREEspot™.

Take `COc1cc2ncnc(Nc3cccc(Cl)c3F)c2cc1OCCON1CCN(C)CC1` [Compound 15, N-(3-chloro-2-fluorophenyl)-7-methoxy-6-(2-((4-methylpiperazin-1-yl)oxy)ethoxy)quinazolin-4-amine]: in series [1], the Kp,uu (unbound brain-to-unbound plasma partition coefficient) was 0.33. In addition, in series [2], the antiproliferative activity entry is “no activity”. The “stability in liver microsomes” value in series [3] is “good stability”. Further, the “S(10) score” value in series [4] is given as 0.015.
